Reference: PubChem BioAssay (NCI)
Several values for one entry are separate records, joined by “and”; a condition that tells them apart may be missing. Equal values may be shown once.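 Values below derive from 48-hour exposures of cells grown in 96-well plates, with endpoints linearly interpolated between the two concentrations bracketing the appropriate inhibition level. Abbreviation: GI50, concentration required for 50% inhibition of growth. TGI: total growth inhibition.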

Columns and labels:
Test in all cases: DTP human tumour cell line panel, 48 h
DLD-1 colon = test system: DLD-1 colon
DMS 114 small cell lung = test system: DMS 114 small cell lung
EKVX NSCLC = test system: EKVX NSCLC
OVCAR-4 ovarian = test system: OVCAR-4 ovarian
SK-MEL-5 melanoma = test system: SK-MEL-5 melanoma
SNB-75 CNS = test system: SNB-75 CNS
SW-620 colon = test system: SW-620 colon
UO-31 renal = test system: UO-31 renal
PC-3 prostate = test system: PC-3 prostate
T-47D breast = test system: T-47D breast

SMILES | TGI (DLD-1 colon) | TGI (DMS 114 small cell lung) | TGI (EKVX NSCLC) | TGI (OVCAR-4 ovarian) | TGI (SK-MEL-5 melanoma) | TGI (SNB-75 CNS) | TGI (SW-620 colon) | TGI (UO-31 renal) | GI50 (DLD-1 colon) | GI50 (OVCAR-4 ovarian) | GI50 (SK-MEL-5 melanoma) | GI50 (SNB-75 CNS) | GI50 (SW-620 colon) | GI50 (UO-31 renal) | GI50 (EKVX NSCLC) | GI50 (PC-3 prostate) | TGI (PC-3 prostate) | GI50 (T-47D breast) | TGI (T-47D breast)
CC1=C(C(=O)Nc2ccccc2C)C(c2ccccc2)C(C(=O)Nc2ccccc2C)=C(C)N1 | > 100 µM | > 100 µM | > 100 µM | > 100 µM | 90 µM | > 100 µM | > 100 µM | > 100 µM | – | – | – | – | – | – | – | – | – | – | –
O=C(c1ccccc1)C(c1ccccc1)C1(O)C(=O)Nc2c(Cl)cc(Cl)cc21 (stereo not given) | 37.5 µM | 33.9 µM | 27.8 µM | 28 µM | 30.7 µM | 39.7 µM | 34.3 µM | 38.4 µM | – | – | – | – | – | – | – | – | – | – | –
Cc1ccc(OCC(=O)N2N=C(c3ccccc3)CC2(O)c2ccccc2)cc1 (stereo not given) | > 100 µM | – | – | 71.6 µM | – | > 100 µM | > 100 µM | > 100 µM | – | – | – | – | – | – | – | – | – | – | –
CC1=C(C(=O)Nc2c(C)cccc2C)C(c2ccc3c(c2)OCO3)C(C(=O)Nc2c(C)cccc2C)=C(C)N1 | 86.8 µM | 38.1 µM | 53.3 µM | 77.3 µM | – | 63.1 µM | 36.5 µM | 30.6 µM | – | – | – | – | – | – | – | – | – | – | –
N#Cc1cn(C2OC(CO)C(O)C2O)c2ncnc(N)c12 (stereo not given) | > 272 µM | – | – | – | 0.109 µM | – | > 100 µM | 0.665 µM and 0.819 µM and 1.98 µM | 27.7 nM | 28.2 nM and 11.7 nM | 41.6 nM | 232 nM | < 14.5 nM | 65.8 nM and 45.9 nM and 27.1 nM | – | – | – | – | –
Cc1c2c(nn1-c1ccc(S(=O)(=O)NC(=S)Nc3ccccc3)cc1)-c1ccccc1CC2 | – | – | > 50 µM | > 50 µM | > 50 µM | > 50 µM | > 50 µM | > 50 µM | – | > 50000 nM | > 50000 nM | > 50000 nM | > 50000 nM | > 50000 nM | > 50000 nM | 39.9 µM | > 50 µM | > 50 µM | > 50 µM
COc1cccc(C2CC(C)(N3CCCC3)Oc3cc4c(cc32)OCO4)c1O (stereo not given) | – | – | > 100 µM | > 100 µM | > 62.4 µM | 53.9 µM | > 100 µM | > 96.3 µM | – | – | – | – | – | – | – | – | > 76.1 µM | – | > 100 µM
COc1cc2c(cc1OC)C(=O)/C(=C/c1cccc(OCC(=O)c3ccccc3)c1)C2 | – | – | > 100 µM | > 100 µM | > 100 µM | 37.8 µM | > 100 µM | > 100 µM | – | 30400 nM | 4240 nM | 12000 nM | 38300 nM | 6930 nM | 33500 nM | 5.11 µM | > 100 µM | 4.34 µM | 68.8 µM
CCN(CC)CCOc1nc2ccc(OC)cc2c2c1-c1ccc(OC)cc1C2=O | – | – | 2.81 µM | 3.17 µM | 2.94 µM | 5.4 µM | 1.61 µM | 1.85 µM | – | 1020 nM | 1570 nM | 1360 nM | 253 nM | 361 nM | 970 nM | 1.3 µM | 2.91 µM | 11 µM | 26.3 µM
COc1cc(/C(C#N)=C/c2ccc3c(c2OC)OCO3)cc2c1OCO2 | – | – | > 100 µM | > 100 µM | > 46.4 µM | 3.42 µM | > 100 µM | > 100 µM | – | 1450 nM | 54.6 nM | 87.8 nM | 41.2 nM | 2090 nM | 652 nM | 0.0967 µM | > 78.4 µM | 6.18 µM | > 83.6 µM
